Values quoted from earlier work in patent publication US20100197666A1, “(THIO) -CARBAMOYL-CYCLOHEXANE DERIVATIVES AND METHOD FOR TREATING SCHIZOPHRENIA” (priority 2007, published 2010).

Key:
Conditions in all cases: background statement; cited from earlier work
[1] = target: 5-HT2C (Homo sapiens, UniProt P28335)
[2] = test system: adrenergic receptor sites
[3] = target: histamine H1 (Homo sapiens, UniProt P35367)
histamine H1, sequence (P35367 whole entry): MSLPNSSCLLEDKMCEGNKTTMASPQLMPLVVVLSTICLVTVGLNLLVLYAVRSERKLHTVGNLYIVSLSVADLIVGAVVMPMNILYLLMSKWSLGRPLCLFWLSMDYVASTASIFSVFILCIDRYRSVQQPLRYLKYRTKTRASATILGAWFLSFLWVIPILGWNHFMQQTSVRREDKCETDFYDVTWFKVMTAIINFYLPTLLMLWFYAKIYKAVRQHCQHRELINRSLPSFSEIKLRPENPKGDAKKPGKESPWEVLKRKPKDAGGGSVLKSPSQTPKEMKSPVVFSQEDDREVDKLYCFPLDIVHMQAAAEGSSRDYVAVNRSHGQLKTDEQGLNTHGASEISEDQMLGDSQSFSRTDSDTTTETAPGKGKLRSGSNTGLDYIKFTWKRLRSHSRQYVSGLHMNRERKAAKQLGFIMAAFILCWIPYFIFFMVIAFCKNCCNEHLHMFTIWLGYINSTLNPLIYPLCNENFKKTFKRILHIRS

5-HT2C, sequence (P28335 33-458, species assumed): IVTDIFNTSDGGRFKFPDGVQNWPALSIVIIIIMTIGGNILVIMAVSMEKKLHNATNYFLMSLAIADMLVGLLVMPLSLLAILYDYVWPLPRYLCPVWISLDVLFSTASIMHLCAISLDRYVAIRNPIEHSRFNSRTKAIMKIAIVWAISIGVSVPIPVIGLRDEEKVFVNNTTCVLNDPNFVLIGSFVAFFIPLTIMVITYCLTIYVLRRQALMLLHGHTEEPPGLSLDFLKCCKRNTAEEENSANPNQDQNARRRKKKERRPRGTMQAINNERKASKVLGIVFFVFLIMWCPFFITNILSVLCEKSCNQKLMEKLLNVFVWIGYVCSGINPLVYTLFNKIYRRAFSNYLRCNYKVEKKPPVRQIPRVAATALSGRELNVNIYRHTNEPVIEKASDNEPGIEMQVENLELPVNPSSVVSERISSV

CN(C)C(=O)NC1CCC(CCN2CCN(c3cccc(Cl)c3Cl)CC2)CC1.Cl (stereo not drawn) [trans-4-{2-[4-(2,3-dichlorophenyl)-piperazin-1-yl]-ethyl}-N,N-dimethylcarbamoyl-cyclohexylamine hydrochloride]
low potency: potency at 5-HT2C receptor site [1] | potency at adrenergic receptor sites [2] | potency at histamine H1 receptor site [3]
